Values joined by “and” are separate entries in the source; they are usually repeats but may differ in a detail not shown here. Identical values can stand only once.
Legend:
[1] = test system: A. baumannii (derived from ATCC ® 19606 ™); test: Bacteriostasis, log reduction; assay type: cell-based; settings: A. baumannii ATCC 19606
Method: (§1) In order to assess the log reduction capabilities of compounds of Formula (1), testing was performed on organisms that are found in acute and chronic wounds. Triplicate tubes were prepared for each bacteria using 50 μL of inoculum (about 1×10^6 CFU/mL) which was added to 450 μL of compound solution (compound of Formula (I)) (or 100 μL of inoculum in 900 μL of compound solution), resulting in a final inoculum of about 1×10^5 CFU/mL, as shown in Table 4.
(§2) Tubes were mixed with a vortex and then incubated in a shaking incubator at 175 RPM and 35° C. to 37° C.
(§3) Positive control in Tables 5a and 5b was 1 mL of 0.89% saline with 1 mL of the 1×10^6 CFU/mL of the organism.
(§4) For Compounds 1, 7, 8, 10, and 18 in Tables 6, 7-A, 7-B, 8, 9, 10-A, 10-B, and 11: The compound solutions were prepared with compound (30 mg), polysorbate 20 (1.6 mL), butylene glycol (1.6 mL), phosphatidyl choline (0.66 g), ethanol (1.6 mL), hydroxypropyl cellulose (0.26 g), and ultra pure water (24.9 mL).
(§5) XAV939 Control in Table X1 was XAV939 (30 mg), polysorbate 20 (1.6 mL), butylene glycol (1.6 mL), phosphatidyl choline (0.66 g), ethanol (1.6 mL), ultra pure water (24.9 mL), and hydroxypropyl cellulose (0.26 g).
(§6) GO-HA Control in Table X2 was GO-HA (30 mg), polysorbate 20 (1.6 mL), butylene glycol (1.6 mL), phosphatidyl choline (0.66 g), ethanol (1.6 mL), ultra pure water (24.9 mL), and hydroxypropyl cellulose (0.26 g).
(§7) For Compound 18+GO-HA in Tables 6 and X4: compound 18 (45 mg), GO-HA (45 mg), polysorbate 20 (2 mL), butylene glycol (2 mL), phosphotidyl choline (0.5 g), ethanol (2 mL), hydroxypropyl cellulose (0.40 g), and ultra pure water (40 mL).
(§8) For XAV939+GO-HA in Tables 6 and X3-A, and X3-B: XAV939 (45 mg), GO-HA (45 mg), butylene glycol (2 mL), polysorbate 20 (2 mL), phosphotidyl choline (0.5 g), ethanol (2 mL), hydroxypropyl cellulose (0.40 g), and ultra pure water (40 mL).
(§9) Testing was performed at two time points: 18 to 24 hours, and […].

[2] = test system: E. coli (derived from ATCC ® 25922 ™); test: Bacteriostasis, log reduction; assay type: cell-based; settings: E. coli ATCC 25922
Method: as §1, §2, §3, §4, §5, §6, §7, §8, §9

[3] = test system: E. coli (derived from ATCC ® 8739 ™); test: Bacteriostasis, log reduction; assay type: cell-based; settings: E. coli ATCC 8739
Method: as §1, §2, §3, §4, §5, §6, §7, §8, §9

[4] = test system: K. pneumoniae (derived from ATCC ® 10031 ™); test: Bacteriostasis, log reduction; assay type: cell-based; settings: K. pneumoniae ATCC 10031
Method: as §1, §2, §3, §4, §5, §6, §7, §8, §9

[5] = test system: P. aeruginosa (derived from ATCC ® 15442 ™); test: Bacteriostasis, log reduction; assay type: cell-based; settings: P. aeruginosa ATCC 15442
Method: as §1, §2, §3, §4, §5, §6, §7, §8, §9

[6] = test system: P. aeruginosa (derived from ATCC ® 9027 ™); test: Bacteriostasis, log reduction; assay type: cell-based; settings: P. aeruginosa ATCC 9027
Method: as §1, §2, §3, §4, §5, §6, §7, §8, §9

[7] = test system: P. vulgaris (derived from ATCC ® 8427 ™); test: Bacteriostasis, log reduction; assay type: cell-based; settings: P. vulgaris ATCC 8427
Method: as §1, §2, §3, §4, §5, §6, §7, §8, §9

[8] = test system: S. epidermidis (derived from ATCC ® 14990 ™); test: Bacteriostasis, log reduction; assay type: cell-based; settings: S. epidermidis ATCC 14990
Method: as §1, §2, §3, §4, §5, §6, §7, §8, §9

[9] = test system: S. pyogenes (derived from ATCC ® 19615 ™); test: Bacteriostasis, log reduction; assay type: cell-based; settings: S. pyogenes ATCC 19615
Method: as §1, §2, §3, §4, §5, §6, §7, §8, §9

new porcine skin = test: Elasticity of healed wound; assay type: in vivo; settings: day 21; topical
Method: Additional tests were performed including elasticity (Table 12); max force (Table 13); tensile strength (strain) (Table 14); energy peak (Table 15); rete-ridge formation; and collagen organization (plane polarized light) (FIG. 24) of the healed wound sites, described as follows.
A is saline (control), B is serum formulation (vehicle), C is GO-HA (vehicle), D is Compound 1; E is Compound 1+GO-HA; F is Compound 8; G is Compound 8+GO-HA; H is Compound 10; and J is Compound 10+GO-HA.
Elasticity (N/mm) is the ability of a material to return to its original shape after stress has been removed. All compounds of Formula (I) tested with or without GO-HA ranged from 33% to 99% improvement in elasticity compared to the saline control.

## O=c1[nH]c(-c2ccc(B(O)O)cc2)nc2c1CSCC2 [Compound 1, (4-(4-oxo-3,5,7,8-tetrahydro-4H-thiopyrano[4,3-d]pyrimidin-2-yl)phenyl)boronic acid]
[1]; 24 h
  Average result: <200
  Log Reduction: >3.0
  Log Value: <2.3
[1]; 72 h
  Average result: <200
  Log Reduction: >3.0
  Log Value: <2.3
[2]; 24 h
  Average result: <200
  Log Reduction: >3.1
  Log Value: <2.3
[2]; 72 h
  Average result: <200
  Log Reduction: >3.1
  Log Value: <2.3
[3]; 24 h
  Average result: 1.3 × 10^4
  Log Reduction: 1.2
  Log Value: 4.1
[3]; 72 h
  Average result: <200
  Log Reduction: >3.0
  Log Value: <2.3
[4]; 24 h
  Average result: 1.1 × 10^3
  Log Reduction: 1.8
  Log Value: 3.0
[4]; 72 h
  Average result: <200
  Log Reduction: >2.5
  Log Value: <2.3
[5]; 24 h
  Average result: <200
  Log Reduction: >3.1
  Log Value: <2.3
[5]; 72 h
  Average result: <200
  Log Reduction: >3.1
  Log Value: <2.3
[6]; 24 h
  Average result: <200
  Log Reduction: >3.0
  Log Value: <2.3
[6]; 72 h
  Average result: <200
  Log Reduction: >3.0
  Log Value: <2.3
[7]; 24 h
  Average result: <200
  Log Reduction: >3.6
  Log Value: <2.3
[7]; 72 h
  Average result: <200
  Log Reduction: >3.6
  Log Value: <2.3
[8]; 24 h
  Average result: 3.1 × 10^5
  Log Reduction: No
  Log Value: 5.5
[8]; 72 h
  Average result: <200
  Log Reduction: >2.5
  Log Value: <2.3
[9]; 24 h
  Average result: <200
  Log Reduction: >3.2
  Log Value: <2.3
[9]; 72 h
  Average result: <200
  Log Reduction: >3.2
  Log Value: <2.3
New porcine skin
  Elasticity, Mean: 37.628 N/mm
  Elasticity, individual values: 39.593 N/mm and 27.299 N/mm and 33.002 N/mm and 50.617 N/mm

## O=c1[nH]c(-c2ccc(-c3ccc(Br)nc3)cc2)nc2c1CSCC2 [Compound 7, 2-(4-(6-bromopyridin-3-yl)phenyl)-3,5,7,8-tetrahydro-4H-thiopyrano [4,3-d]pyrimidin-4-one]
[2]; 24 h
  Average result: 3.2 × 10^5
  Log Reduction: No
  Log Value: 5.5
[2]; 72 h
  Average result: 2.7 × 10^4
  Log Reduction: 1.0
  Log Value: 4.4
[3]; 24 h
  Average result: 7.9 × 10^4
  Log Reduction: 0.4
  Log Value: 4.9
[3]; 72 h
  Average result: >3.6 × 10^6
  Log Reduction: No
  Log Value: >6.6
[5]; 24 h
  Average result: <200
  Log Reduction: >3.1
  Log Value: <2.3
[5]; 72 h
  Average result: <200
  Log Reduction: >3.1
  Log Value: <2.3
[8]; 24 h
  Average result: 2.8 × 10^4
  Log Reduction: 0.4
  Log Value: 4.4
[8]; 72 h
  Average result: <200
  Log Reduction: >2.5
  Log Value: <2.3

## CC(C)(OCCO)c1ccc(-c2nc3c(c(=O)[nH]2)CSCC3)cc1 [Compound 8, 2-(4-(2-(2-hydroxyethoxy)propan-2-yl)phenyl)-3,5,7,8-tetrahydro-4H-thiopyrano[4,3-d]pyrimidin-4-one]
[2]; 24 h
  Average result: 200
  Log Reduction: 3.1
  Log Value: 2.3
[2]; 72 h
  Average result: <200
  Log Reduction: >3.1
  Log Value: <2.3
[3]; 24 h
  Average result: 3.1 × 10^3
  Log Reduction: 1.8
  Log Value: 3.5
[3]; 72 h
  Average result: 6.8 × 10^4
  Log Reduction: 0.5
  Log Value: 4.8
[5]; 24 h
  Average result: 7.3 × 10^2
  Log Reduction: 2.5
  Log Value: 2.9
[5]; 72 h
  Average result: <200
  Log Reduction: >3.1
  Log Value: <2.3
[8]; 24 h
  Average result: 6.0 × 10^2
  Log Reduction: 2.0
  Log Value: 2.8
[8]; 72 h
  Average result: <200
  Log Reduction: >2.5
  Log Value: <2.3
New porcine skin
  Elasticity, Mean: 40.080 N/mm
  Elasticity, individual values: 47.748 N/mm and 22.23 N/mm and 55.607 N/mm and 46.485 N/mm and 28.331 N/mm

## COC(=O)NCCOC(C)(C)c1ccc(-c2nc3c(c(=O)[nH]2)CSCC3)cc1 [Compound 18, methyl (2-((2-(4-(4-oxo-3,5,7,8-tetrahydro-4H-thiopyrano[4,3-d]pyrimidin-2-yl)phenyl)propan-2-yl)oxy)ethyl)carbamate]
[1]; 24 h
  Average result: <200
  Log Reduction: >3.0
  Log Value: <2.3
[1]; 72 h
  Average result: <200
  Log Reduction: >3.0
  Log Value: <2.3
[2]; 24 h
  Average result: <200
  Log Reduction: >2.3
  Log Value: <2.3
[2]; 72 h
  Average result: <200
  Log Reduction: >2.3
  Log Value: <2.3
[3]; 24 h
  Average result: 5.3 × 10^2
  Log Reduction: 1.8
  Log Value: 2.7
[3]; 72 h
  Average result: <200
  Log Reduction: >2.2
  Log Value: <2.3
[4]; 24 h
  Average result: <200
  Log Reduction: >2.5
  Log Value: <2.3
[4]; 72 h
  Average result: <200
  Log Reduction: >2.5
  Log Value: <2.3
[5]; 24 h
  Average result: <200
  Log Reduction: >2.9
  Log Value: <2.3
[5]; 72 h
  Average result: <200
  Log Reduction: >2.9
  Log Value: <2.3
[6]; 24 h
  Average result: <200
  Log Reduction: >2.5
  Log Value: <2.3
[6]; 72 h
  Average result: <200
  Log Reduction: >2.5
  Log Value: <2.3
[7]; 24 h
  Average result: <200
  Log Reduction: >3.6
  Log Value: <2.3
[7]; 72 h
  Average result: <200
  Log Reduction: >3.6
  Log Value: <2.3
[8]; 24 h
  Average result: 8.0 × 10^2
  Log Reduction: 2.0
  Log Value: 2.9
[8]; 72 h
  Average result: <200
  Log Reduction: >2.6
  Log Value: <2.3
[9]; 24 h
  Average result: <200
  Log Reduction: >3.2
  Log Value: <2.3
[9]; 72 h
  Average result: <200
  Log Reduction: >3.2
  Log Value: <2.3
